Data on 12 molecules can be found in patent publication US20230406865A1, “CRYSTAL FORM OF FREE BASE OF INHIBITOR CONTAINING BICYCLIC RING DERIVATIVE AND PREPARATION METHOD AND APPLICATION OF CRYSTAL FORM” (SHANGHAI HANSOH BIOMEDICAL CO., LTD., priority 2020, published 2023).

By IC50 is commonly meant the point on the concentration scale where inhibition reaches its midpoint. As a reminder, the MRT is the average time that molecules of a dose stay in the body. One may read the Tmax as the time from dosing to the highest level.

The target of one data set is T1, Ba/F3 KIF5B-RET cells (Homo sapiens, UniProt P07949).
T1 construct: fused on or other part: P33176 (Kinesin-1 heavy chain)
The data set can be described thus: Inhibition of proliferation of Ba/F3 KIF5B-RET cells (CellTiter-Glo). The class given is cell-based. The settings on record: 72 to 144 hours. Here is the method:
When Ba/F3 KIF5B-RET cells were cultured to the appropriate cell density, cells were collected, and the cells were adjusted to the appropriate cell concentration using complete medium, and the cell suspension was spread in a 96-well plate, 90 μL per well, and placed in the wall of a 37° C., 5% CO2 incubator overnight; compound solutions of different concentrations were prepared using DMSO and culture medium; a solvent control was set, and the compound solution was added to a 96-well plate with […] at 37° C. in a 5% CO2 incubator for 72 to 144 hours, CellTiter-Glo solution was added thereto and mixed well by shaking, incubated for 10 minutes in the dark, and read by BioTek Synergy H1 microplate reader.
The IC50 values were obtained by using the luminescence signal values to calculate the inhibition rate, the concentrations and the inhibition rates were fitted to a nonlinear regression curve using Graphpad Prism software.

The next data set concerns the target T2, KDR kinase (Homo sapiens, UniProt P35968).
T2 construct: purchased Carna 08-191
The data set can be described thus: HTRF kinase activity inhibition, KDR. The settings on record: for IC50: HTRF, ATP at Km; for Ratio (KDR/RET): KDR IC50 / RET IC50. The data set is classed as biochemical. The essentials:
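Inhibition of KDR kinase activity measured by homogeneous time-resolved fluorescence with a tyrosine-kinase KinEASE substrate kit and ATP.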

For another data set, the target named is T3, RET kinase (Homo sapiens, UniProt P07949).
T3 construct: purchased Carna 08-159
The experiment in a line: HTRF kinase activity inhibition, RET wild-type. The data set is classed as biochemical. The settings on record: ATP at Km. In a few lines: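 HTRF (KinEASE-TK) kinase assay with recombinant RET wild-type, RET V804M, RET V804L and KIF5B-RET enzymes plus ATP.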

Data set [1] has as its system TT cells (MTC, RET C634W). The experiment in a line: Inhibition of proliferation of TT cells (CellTiter-Glo, 72 h). The class given is cell-based. The settings on record: Homo sapiens. Here is the method: TT cells were purchased from the cell bank of the Chinese Academy of Sciences.
When TT cells were cultured to the appropriate fusion level, TT cells were collected, and the cells were adjusted to the appropriate cell concentration using complete medium, and the cell suspension was spread in a 96-well plate, 90 μL per well, and placed to the wall of a 37° C., 5% CO2 incubator overnight; and compound solutions of different concentrations were prepared using DMSO and culture medium; and a solvent control was set, the compound solution was added to a 96-well plate, 10 μL per well, and placed to the wall of a 37° C., 5% CO2 incubator for 72 hours; CellTiter-Glo solution was added thereto and the mixture was mixed well by shaking, incubated for 10 minutes in the dark, and read by BioTek Synergy H1 microplate reader.
The IC50 values were obtained by using luminescence signal values to calculate the inhibition rate, the concentration and the inhibition rate were fitted to a nonlinear regression curve using Graphpad Prism software.
(Cellular ATP, detected with luciferase, serves as a proxy for viable cell number.)

The nature of data set [2]: Balb/C mouse pharmacokinetics, oral 5 mg/kg. The class given is in vivo, Balb/C mice. The settings on record: male, p.o. 5 mg/kg, plasma. On the procedure:
The pharmacokinetic behavior of the following compound embodiments, administered orally at a dose of 5 mg/kg in plasma in mice, was studied using Balb/C mice as test animals.
Balb/C Mouse 6/embodiment, male, Shanghai Jiesijie Laboratory Animal Co., Ltd, Animal Production License No. (SCXK (Shanghai) 2013-0006 N0.311620400001794).
Balb/C mice, males; p.o. after overnight fasting, respectively, at a dose of 5 mg/kg, administered in a volume of 10 mL/kg.
0.5% CMC-Na (1% Tween80) was dissolved by ultrasound, and prepared into clear solution or uniform suspension.
Before and after administration, 0.1 mL of blood was collected from mice at 0, 0.5, 1, 2, 4, 6, 8 and 24 hours by orbital collection, placed in EDTA-K2 tubes, centrifuged at 6000 rpm at 4° C. for 6 minutes to separate plasma, and stored at −80° C.
2.5 Sample Handling: • 1) 40 μL of plasma sample was precipitated by adding 160 μL of acetonitrile, mixed and centrifuged at 3500×g for 5-20 minutes. • 2) 100 μL of the supernatant solution after treatment was taken to analyze the concentration of the test compound by LC/MS/MS.
2.6 Liquid Phase Analysis • Liquid phase conditions: Shimadzu LC-20AD pump • Mass spectrometry conditions: AB Sciex API 4000 mass spectrometer • Chromatographic column: phenomenex Gemiu 5 μM C18 50×4.6 mm • Mobile phase: Liquid A was 0.1% formic acid aqueous solution, liquid B was acetonitrile • Flow rate: 0.8 mL/min • Elution time: 0-4.0 minutes, the eluent was as follows:
The main pharmacokinetic parameters were calculated by WinNonlin 6.1 and the results of the mouse pharmacokinetic experiments were shown in Table 13 below.

T1 sequence (P07949 whole entry, change not shown, the tested form may be a part): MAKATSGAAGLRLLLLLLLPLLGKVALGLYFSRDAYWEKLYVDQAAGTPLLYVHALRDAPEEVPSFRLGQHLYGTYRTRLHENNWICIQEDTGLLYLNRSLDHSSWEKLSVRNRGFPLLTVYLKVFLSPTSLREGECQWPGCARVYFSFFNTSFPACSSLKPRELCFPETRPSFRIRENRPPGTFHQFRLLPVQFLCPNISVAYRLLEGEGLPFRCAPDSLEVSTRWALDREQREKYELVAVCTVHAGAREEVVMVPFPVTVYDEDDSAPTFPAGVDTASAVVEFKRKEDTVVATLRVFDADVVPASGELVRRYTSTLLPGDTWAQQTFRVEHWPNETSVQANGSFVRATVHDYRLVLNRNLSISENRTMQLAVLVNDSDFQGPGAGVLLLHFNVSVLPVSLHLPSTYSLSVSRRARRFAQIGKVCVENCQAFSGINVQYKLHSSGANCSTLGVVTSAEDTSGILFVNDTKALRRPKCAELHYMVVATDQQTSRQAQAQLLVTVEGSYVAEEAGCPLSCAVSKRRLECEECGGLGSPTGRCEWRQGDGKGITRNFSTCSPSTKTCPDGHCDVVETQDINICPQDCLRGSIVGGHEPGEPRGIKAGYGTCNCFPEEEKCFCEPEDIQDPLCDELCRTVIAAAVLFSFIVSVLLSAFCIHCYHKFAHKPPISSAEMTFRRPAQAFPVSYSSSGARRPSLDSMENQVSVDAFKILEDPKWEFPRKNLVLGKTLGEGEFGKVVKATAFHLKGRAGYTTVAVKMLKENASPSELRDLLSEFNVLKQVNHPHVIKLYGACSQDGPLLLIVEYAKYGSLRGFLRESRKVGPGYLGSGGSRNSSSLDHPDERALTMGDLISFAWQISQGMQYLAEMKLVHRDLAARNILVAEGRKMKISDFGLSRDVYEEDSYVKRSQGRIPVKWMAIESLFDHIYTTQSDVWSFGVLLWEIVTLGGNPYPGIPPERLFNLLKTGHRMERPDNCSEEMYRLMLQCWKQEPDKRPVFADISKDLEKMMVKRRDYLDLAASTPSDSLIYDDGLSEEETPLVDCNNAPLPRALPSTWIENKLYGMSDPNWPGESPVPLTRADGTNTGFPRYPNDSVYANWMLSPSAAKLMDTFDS
T3 sequence (P07949 29-1114): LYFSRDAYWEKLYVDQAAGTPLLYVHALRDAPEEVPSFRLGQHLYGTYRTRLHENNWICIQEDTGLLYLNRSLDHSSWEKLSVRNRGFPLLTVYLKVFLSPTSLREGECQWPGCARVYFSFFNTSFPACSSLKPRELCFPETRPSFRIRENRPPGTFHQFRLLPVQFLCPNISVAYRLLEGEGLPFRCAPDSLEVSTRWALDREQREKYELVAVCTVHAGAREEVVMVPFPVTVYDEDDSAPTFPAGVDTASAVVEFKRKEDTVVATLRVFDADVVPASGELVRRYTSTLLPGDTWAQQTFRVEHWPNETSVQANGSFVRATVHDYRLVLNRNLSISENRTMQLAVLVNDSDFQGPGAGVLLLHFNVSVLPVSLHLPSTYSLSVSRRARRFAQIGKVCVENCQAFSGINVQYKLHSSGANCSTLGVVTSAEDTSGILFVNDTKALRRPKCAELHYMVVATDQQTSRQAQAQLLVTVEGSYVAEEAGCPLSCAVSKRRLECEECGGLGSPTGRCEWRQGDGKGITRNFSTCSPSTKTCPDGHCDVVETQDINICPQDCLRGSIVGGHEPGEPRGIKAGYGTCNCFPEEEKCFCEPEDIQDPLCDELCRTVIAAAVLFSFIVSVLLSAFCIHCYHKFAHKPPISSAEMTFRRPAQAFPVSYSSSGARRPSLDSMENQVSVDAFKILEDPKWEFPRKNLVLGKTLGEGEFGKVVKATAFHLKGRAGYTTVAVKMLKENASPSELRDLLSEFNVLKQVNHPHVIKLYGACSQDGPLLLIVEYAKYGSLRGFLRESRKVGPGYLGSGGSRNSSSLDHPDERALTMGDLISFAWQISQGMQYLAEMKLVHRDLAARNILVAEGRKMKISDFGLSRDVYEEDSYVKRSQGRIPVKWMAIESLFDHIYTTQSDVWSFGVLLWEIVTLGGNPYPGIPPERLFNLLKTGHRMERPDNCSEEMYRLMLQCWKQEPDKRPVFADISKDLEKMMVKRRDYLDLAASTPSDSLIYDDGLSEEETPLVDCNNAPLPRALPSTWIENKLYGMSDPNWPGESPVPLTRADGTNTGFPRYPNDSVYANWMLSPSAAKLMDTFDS
T2 sequence (P35968 20-1356): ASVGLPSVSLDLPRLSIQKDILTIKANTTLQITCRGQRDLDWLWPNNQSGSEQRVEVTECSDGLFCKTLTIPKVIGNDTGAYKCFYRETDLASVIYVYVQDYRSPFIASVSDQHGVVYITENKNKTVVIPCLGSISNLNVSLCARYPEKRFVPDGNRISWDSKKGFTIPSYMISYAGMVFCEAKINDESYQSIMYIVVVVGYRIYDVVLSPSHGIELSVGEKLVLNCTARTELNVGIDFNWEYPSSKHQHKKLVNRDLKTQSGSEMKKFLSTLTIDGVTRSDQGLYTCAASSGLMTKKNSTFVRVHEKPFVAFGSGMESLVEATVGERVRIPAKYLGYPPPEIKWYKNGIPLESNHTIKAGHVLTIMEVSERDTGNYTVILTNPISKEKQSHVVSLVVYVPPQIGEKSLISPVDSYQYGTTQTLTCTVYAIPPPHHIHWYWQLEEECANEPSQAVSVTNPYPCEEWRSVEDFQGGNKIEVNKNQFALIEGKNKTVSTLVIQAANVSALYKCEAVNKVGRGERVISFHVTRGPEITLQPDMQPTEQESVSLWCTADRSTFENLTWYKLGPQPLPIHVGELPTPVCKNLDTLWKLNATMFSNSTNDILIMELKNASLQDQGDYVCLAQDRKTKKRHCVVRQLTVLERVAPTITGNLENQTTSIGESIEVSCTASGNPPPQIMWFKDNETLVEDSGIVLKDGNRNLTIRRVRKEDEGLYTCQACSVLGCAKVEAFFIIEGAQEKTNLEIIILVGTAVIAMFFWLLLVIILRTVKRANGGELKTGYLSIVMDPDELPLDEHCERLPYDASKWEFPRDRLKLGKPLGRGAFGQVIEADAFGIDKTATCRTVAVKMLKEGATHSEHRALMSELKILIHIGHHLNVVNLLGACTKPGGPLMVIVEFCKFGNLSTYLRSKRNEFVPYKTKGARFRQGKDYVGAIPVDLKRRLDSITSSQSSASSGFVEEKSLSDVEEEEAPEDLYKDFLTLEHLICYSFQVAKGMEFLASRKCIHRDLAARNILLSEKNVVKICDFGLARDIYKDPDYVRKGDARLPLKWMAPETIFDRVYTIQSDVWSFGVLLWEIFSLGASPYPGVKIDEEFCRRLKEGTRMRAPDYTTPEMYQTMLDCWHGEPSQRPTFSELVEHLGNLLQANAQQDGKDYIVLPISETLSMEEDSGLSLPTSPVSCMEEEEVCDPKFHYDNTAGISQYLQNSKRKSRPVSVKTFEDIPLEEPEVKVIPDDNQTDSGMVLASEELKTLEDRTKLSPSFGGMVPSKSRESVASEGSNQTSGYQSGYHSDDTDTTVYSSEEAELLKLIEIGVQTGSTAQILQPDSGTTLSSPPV

In the case of `COc1ccc(CN2C3CC2CN(c2ccc(-c4cc(OCC[S+](C)[O-])cn5ncc(C#N)c45)cn2)C3)cn1` (stereo not drawn) [Embodiment 1, 4-(6-(6-((6-Methoxypyridin-3-yl)methyl)-3,6-diazabicyclo[3.1.1]heptan-3-yl)pyridin-3-yl)-6-(2-(methylsulfinyl)ethoxy)pyrazolo[1,5-a]pyridine-3-carbonitrile], the 50% inhibitory concentration (IC50) at Ba/F3 KIF5B-RET cells was found to be 24.6 nM; against KDR kinase, 28 nM; against RET kinase, 0.47 nM; in data set [1], 11.5 nM. In addition, the “Ratio (KDR/RET)” value at KDR kinase was found to be 59.
`COc1ccc(CN2C3CC2CN(c2ccc(-c4cc(C#C[C@@H](C)O)cn5ncc(C#N)c45)cn2)C3)cn1` [Embodiment 22, 6-((R)-3-Hydroxybut-1-yn-1-yl)-4-(6-(6-((6-methoxypyridin-3-yl)methyl)-3,6-diazabicyclo[3.1.1]heptan-3-yl)pyridin-3-yl)pyrazolo[1,5-a]pyridine-3-carbonitrile]: the IC50 on Ba/F3 KIF5B-RET cells came to 16.9 nM; at KDR kinase it was 24 nM; against RET kinase, 0.32 nM; in data set [1] it was 20.7 nM. For the same molecule, the “Ratio (KDR/RET)” value at KDR kinase was found to be 75.
Regarding `COc1ccc(CN2C3CC2CN(c2ccc(-c4cc(OC[C@H]5C[C@@](C)(O)C5)cn5ncc(C#N)c45)cn2)C3)cn1` [Embodiment 44, 6-((Cis-3-hydroxy-3-methylcyclobutyl)methoxy)-4-(6-(6-((6-methoxypyridin-3-yl)methyl)-3,6-diazabicyclo[3.1.1]heptan-3-yl)pyridin-3-yl)pyrazolo[1,5-a]pyridine-3-carbonitrile], in data set [2] (read-out: Average residence time MRT), the mean residence time MRT stood at 5.22 h. The Cmax in data set [2] (read-out: Blood concentration Cmax) was 1620 ng/mL. Moreover, in data set [2] (read-out: Curve area AUC0-t), the AUC(0-t) was found to be 14000 ng·h/mL. Besides, the AUC(0-inf) in data set [2] (read-out: Curve area AUC0-∞) was 14000 ng·h/mL. Moreover, the half-life in data set [2] (read-out: Half-life t1/2 (converted)) was 3.45 h. The Tmax in data set [2] (read-out: Peak time tmax) was 0.5 h. The 50% inhibitory concentration (IC50) on Ba/F3 KIF5B-RET cells stood at 15.3 nM; in data set [1], 12.2 nM.
In the case of `COc1ccc(CN2C3CC2CN(c2ccc(-c4cc(OCC56CC(C#N)(C5)C6)cn5ncc(C#N)c45)cn2)C3)cn1` [Embodiment 53, 6-((3-Cyanobicyclo[1.1.1]pentan-1-yl)methoxy)-4-(6-(6-((6-methoxypyridin-3-yl)methyl)-3,6-diazabicyclo[3.1.1]heptan-3-yl)pyridin-3-yl)pyrazolo[1,5-a]pyridine-3-carbonitrile], the IC50 turned out to be 30.6 nM on Ba/F3 KIF5B-RET cells, 21.6 nM against KDR kinase, 0.8 nM on RET kinase and 24.7 nM in data set [1]. Further, on KDR kinase, the “Ratio (KDR/RET)” value was found to be 27.
In the same order, the values of `COc1ccc(CN2C3CC2CN(c2ccc(-c4cc(OCC56CC(C(N)=O)(C5)C6)cn5ncc(C#N)c45)cn2)C3)cn1` [Embodiment 66, 3-(((3-Cyano-4-(6-(6-((6-methoxypyridin-3-yl)methyl)-3,6-diazabicyclo[3.1.1]heptan-3-yl)pyridin-3-yl)pyrazolo[1,5-a]pyridin-6-yl)oxy)methyl)bicyclo[1.1.1]pentane-1-carboxamide] are 14.8 nM, 3 nM, 0.25 nM, 5.18 nM and 12.
For the molecule `CNC(=O)C12CC(COc3cc(-c4ccc(N5CC6CC(C5)N6Cc5ccc(OC)nc5)nc4)c4c(C#N)cnn4c3)(C1)C2` [Embodiment 67, 3-(((3-Cyano-4-(6-(6-((6-methoxypyridin-3-yl)methyl)-3,6-diazabicyclo[3.1.1]heptan-3-yl)pyridin-3-yl)pyrazolo[1,5-a]pyridin-6-yl)oxy)methyl)-N-methylbicyclo[1.1.1]pentane-1-carboxamide], the IC50 on Ba/F3 KIF5B-RET cells amounted to 5.33 nM; against KDR kinase it was 4 nM; against RET kinase, 0.25 nM; in data set [1], 6.84 nM. For the same molecule, the “Ratio (KDR/RET)” value on KDR kinase was found to be 16.
For `COc1ncc(CN2C3CC2CN(c2ccc(-c4cc(OCC5CC(C)(O)C5)cn5ncc(C#N)c45)cn2)C3)cc1F` (stereo not drawn) [Embodiment 72, 4-(6-(6-((5-Fluoro-6-methoxypyridin-3-yl)methyl)-3,6-diazabicyclo[3.1.1]heptan-3-yl)pyridin-3-yl)-6-((cis-3-hydroxy-3-methylcyclobutyl)methoxy)pyrazolo[1,5-a]pyridine-3-carbonitrile], in that order: 8.59 nM, 7.4 nM, 0.37 nM, 13.9 nM and 20.
With `COc1ncc(CN2C3CC2CN(c2ccc(-c4cc(C#CC5(O)COC5)cn5ncc(C#N)c45)cn2)C3)cc1F` [Embodiment 81, 4-(6-(6-((5-Fluoro-6-methoxypyridin-3-yl)methyl)-3,6-diazabicyclo[3.1.1]heptan-3-yl)pyridin-3-yl)-6-((3-hydroxyoxetan-3-yl)ethynyl)pyrazolo[1,5-a]pyridine-3-carbonitrile], the figures for the 50% inhibitory concentration (IC50) (at Ba/F3 KIF5B-RET cells; in data set [1]) were 16.8 nM and 13.8 nM, respectively.
As for `COc1ccc(CN2C3CC2CN(c2ccc(-c4cc(C#CC5(O)CCC5)cn5ncc(C#N)c45)cn2)C3)cn1` [Embodiment 82, 6-((1-Hydroxycyclobutyl)ethynyl)-4-(6-(6-((6-methoxypyridin-3-yl)methyl)-3,6-diazabicyclo[3.1.1]heptan-3-yl)pyridin-3-yl)pyrazolo[1,5-a]pyridine-3-carbonitrile], the half-inhibitory concentration (IC50) worked out at 21.9 nM on Ba/F3 KIF5B-RET cells and 17.8 nM in data set [1].
In the same order, the values of `CC(C)(N)C#Cc1cc(-c2ccc(N3CCC(C)(NC(=O)c4ncccc4Cl)CC3)nc2)c2c(C#N)cnn2c1` [Embodiment 86, N-(1-(5-(6-(3-Amino-3-methylbut-1-yn-1-yl)-3-cyanopyrazolo[1,5-a]pyridin-4-yl)pyridin-2-yl)-4-methylpiperidin-4-yl)-3-chloropicolinamide] are 15.4 nM and 14.6 nM.
In the same order, the values of `Cc1ccc(F)cc1C(=O)NC1(C)CCN(c2ccc(-c3cc(C#CC(C)(C)N)cn4ncc(C#N)c34)cn2)CC1` [Embodiment 87, N-(1-(5-(6-(3-amino-3-methylbut-1-yn-1-yl)-3-cyanopyrazolo[1,5-a]pyridin-4-yl)pyridin-2-yl)-4-methylpiperidin-4-yl)-5-fluoro-2-methylbenzamide] are 18.5 nM and 23.6 nM.
In the case of `CC1(O)CN(c2cc(-c3ccc(N4CCC(C)(NC(=O)c5ncccc5Cl)CC4)nc3)c3c(C#N)cnn3c2)C1` [Embodiment 95, 3-Chloro-N-(1-(5-(3-cyano-6-(3-hydroxy-3-methylazetidin-1-yl)pyrazolo[1,5-a]pyridin-4-yl)pyridin-2-yl)-4-methylpiperidin-4-yl)picolinamide], the IC50 came to 22.5 nM on Ba/F3 KIF5B-RET cells, 24 nM at KDR kinase, 1 nM on RET kinase and 15 nM in data set [1]. On KDR kinase, the “Ratio (KDR/RET)” value is recorded as 24.
